5 compounds from PubChem BioAssay (NCI) can be followed below.

Some test systems named below: MCF7 breast; NCI-H226 lung; MALME-3M melanoma; ACHN renal; HS 578T breast; MDA-MB-435; OVCAR-8 ovarian; EKVX NSCLC; U251 CNS; A549 NSCLC.
What all share (test): inhibition of tumour cell growth, NCI panel, 48 h

Where “and” joins values, the source holds several entries; their conditions need not be identical. Equal values may be shown once.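 Tested at 5 concentrations; 48 h exposure; 96-well plates; endpoints linearly interpolated, else capped at highest concentration. The concentration for 50% growth inhibition is given as GI50. The concentration for full growth arrest is given as TGI.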

For `O=C(N/N=C/c1cccc(O)c1)c1ccc(C(F)(F)F)nc1Nc1cccc(C(F)(F)F)c1`, the GI50 in the test with MCF7 breast was 1.37 µM; with NCI-H226 lung, 1.28 µM; in the test with MALME-3M melanoma, 1.36 µM; in the test with ACHN renal it was 2.09 µM; in the test with HS 578T breast it was 1.86 µM; in the test on MDA-MB-435, 1.65 µM. Further, the GI50 with OVCAR-8 ovarian is 2.12 µM; in the test with EKVX NSCLC, 1.01 µM; with U251 CNS it was 1.74 µM; in the test with A549 NSCLC, 2.43 µM. The TGI in the test on MCF7 breast turned out to be 4.08 µM; with NCI-H226 lung it was 3.51 µM; in the test with MALME-3M melanoma it was 3.83 µM; with ACHN renal it was 6.35 µM; in the test on HS 578T breast, 5.86 µM; in the test with MDA-MB-435, 4.23 µM. The TGI turned out to be 11.3 µM in the test on OVCAR-8 ovarian, 3.37 µM with EKVX NSCLC, 6.65 µM in the test with U251 CNS and 7.84 µM with A549 NSCLC.

On to `O=[N+]([O-])c1ccc2nc(=S)[nH]n2c1`, for which the TGI in the test with MCF7 breast, in the test on NCI-H226 lung, in the test on MALME-3M melanoma, in the test on ACHN renal, with HS 578T breast and in the test with MDA-MB-435 was above 100 µM throughout. Besides, the TGI in the test with OVCAR-8 ovarian, in the test on EKVX NSCLC, in the test with U251 CNS and in the test with A549 NSCLC was above 100 µM each time.

As to `O=C1CC2OCC=C3CN4CCC56c7ccccc7N1C5C2C3CC46` (stereo not given) (tested in a mixture with another compound), the GI50 in the test with MCF7 breast, in the test with NCI-H226 lung, in the test with MALME-3M melanoma, in the test on ACHN renal, with HS 578T breast and in the test on MDA-MB-435 was above 50 µg/mL in each case. Further, the GI50 in the test with OVCAR-8 ovarian, with EKVX NSCLC, in the test on U251 CNS and in the test with A549 NSCLC was above 50 µg/mL throughout. Also, the TGI in the test with MCF7 breast, in the test with NCI-H226 lung, with MALME-3M melanoma, in the test on ACHN renal, with HS 578T breast and in the test with MDA-MB-435 was above 50 µg/mL each time. The TGI in the test with OVCAR-8 ovarian, in the test with EKVX NSCLC, with U251 CNS and in the test with A549 NSCLC was above 50 µg/mL in each case.

`CN(C)c1ccc(/C=N/NC(=O)c2cnc3ccccc3c2)cc1`: the TGI in the test on MCF7 breast was above 100 µM; with NCI-H226 lung, above 100 µM; with MALME-3M melanoma, above 100 µM; in the test with ACHN renal it was above 100 µM; with HS 578T breast, 63.5 µM; with MDA-MB-435, 34.5 µM. Further, the TGI in the test with OVCAR-8 ovarian, with EKVX NSCLC, in the test with U251 CNS and in the test on A549 NSCLC was above 100 µM throughout.

For `NC(=S)N=Nc1c(O)[nH]c2ccccc12`, the GI50 with MCF7 breast is 168 µM; in the test on NCI-H226 lung it was 169 µM; in the test with MALME-3M melanoma, 310 µM; in the test on ACHN renal it was 141 µM; in the test with HS 578T breast, 195 µM; in the test on MDA-MB-435, 925 µM. The GI50 with OVCAR-8 ovarian was 234 µM; in the test with EKVX NSCLC, 19.2 µM and 123 µM; with U251 CNS it was 188 µM; with A549 NSCLC it was 274 µM. The TGI in the test with MCF7 breast is 611 µM; in the test on NCI-H226 lung, 307 µM; with MALME-3M melanoma, 753 µM; in the test with ACHN renal it was 394 µM; in the test on HS 578T breast, 691 µM; in the test on MDA-MB-435, above 1000 µM. For the same compound, the TGI in the test on OVCAR-8 ovarian was 846 µM; in the test on EKVX NSCLC, 318 µM; with U251 CNS it was 404 µM; with A549 NSCLC, 897 µM.
